Ends that are not written are not given here.
Legend:
[1] = system: cytochrome C; test: Expression of cytochrome C by immunotransfer (Western Blot); type: cell-based; conditions: human dermal fibroblasts; 1% solution of a 50-ppm mother-solution; 72 hours
Method: The aim of this study was to determine the effect of the SEQ ID No. 2 peptide on the expression of cytochrome C. For this, the quantity of cytochrome C was evaluated by the immunotransfer (or Western Blot) technique.
Protocol: Human dermal fibroblasts were treated with a 1% solution of a 50-ppm SEQ ID No. 2 peptide mother-solution for 72 hours. The cells were then lysed and homogenized by sonication, then centrifuged for 10 minutes at 1000 g. The samples, standardized for their protein concentration (BCA measurement kit, Pierce) were subjected to electrophoresis on 4-12% bis-tris gel (Invitrogen). After electro-transfer, the membranes were incubated overnight with an anticytochrome C antibody, diluted to 1/500 (mouse monoclonal anti-cytochrome C, Tebu). A secondary antibody, coupled to the peroxidase and diluted to 1/5000 was then used (peroxidase conjugated F(ab′)2, goat antimouse, Immunotech). The chemiluminescent signal was then quantified using the Supersignal West Femto Trial kit and read in a reading chamber (MultiImage Light Cabinet, Immunotech Corporation).

[2] = system: cytochrome oxidase; test: Enzymatic activity of cytochrome oxidase (Cytocox 1 kit) in treated fibroblasts; type: cell-based; conditions: normal human fibroblasts, 1% solution of a 50-ppm solution, compared with untreated cells
Method: The aim of this study was to determine the effect of the SEQ ID No. 2 peptide on mitochondrial activity. For this, the total enzymatic (mitochondrial) activity of cytochrome oxidase was measured.
Protocol: Normal human fibroblasts were treated with a 1% solution of a 50-ppm solution containing the SEQ ID No. 2 peptide, representative of the peptide family according to the invention, for 3 hours and 24 hours. The cells were collected, rinsed, and then lysed by sonication. A first centrifuging was performed to eliminate the principal cellular debris, and the supernatant was then centrifuged again at 10,000 g for 10 minutes. The enzymatic activity was measured in the supernatant and/or in the second residue, by a biochemical method using the Cytocox 1 kit (Sigma-Aldrich), then standardized for protein content (measured with the BCA kit, Pierce).

[3] = system: Dermal fibroblasts; test: Synthesis of intracellular ATP (ATP Bioluminescence Assay Kit HS II); type: cell-based; conditions: 1% solution of a 50 ppm peptide solution, compared to untreated cells
Method: Protocol: This study was conducted using an ATP Bioluminescence Assay Kit HS II (Roche Applied Science). Dermal fibroblasts were treated with a 1% solution of a 50 ppm solution containing the SEQ ID No. 2 peptide, representative of the peptide family according to the invention, for a period of 1 to 3 hours. At the end of incubation, the tubes were rinsed with 2 ml of cold PBS before adding 250 μl of a lysis buffer provided in the kit. The cells of each tubes were then scraped up and collected in 14-ml tubes. Each tube was rinsed with 2×500 μl of cold PBS and the whole was collected again in the respective tubes. […] The ATP measurement was performed on these samples: 50 μl of this dilution was placed in a Luma cuvette and […]. After 10 seconds, the luminescence reading was begun. The values were standardized relative to the quantity of proteins for each sample. The measurements were made using the Biocounter M2010A Luma®/3M equipment.

[4] = system: dermal fibroblast mitochondria; test: Mitochondrial membrane potential, JC-1 marking, with or without H2O2 or UVB stress; type: cell-based, human
Method: The aim of this study was to determine the protective effect of the SEQ ID No. 2 peptide with respect to dermal fibroblast mitochondria subjected to an oxidative stress caused by oxygenated water (H2O2) or UVB irradiation. A marker for the membrane potential of mitochondria (JC-1) was used for this. JC-1 is a marker that emits different fluorescences depending on the level of polarization of the mitochondrial membrane.
Protocol: Human dermal fibroblasts were treated with a 1% solution of a 50-ppm SEQ ID No. 2 peptide mother-solution for 96 hours and then subjected to an oxidative stress caused by 2 mM of H2O2 for 30 min. or to UVB irradiation at 50 mJ/cm^2. Controls not treated with the peptide or H2O2 or not irradiated were performed under the same conditions. At the end of the experiment, the cells were washed, fixed, and subjected to marking with a 0.2 μg/ml solution of JC-1 (Molecular Probes®) in order to disclose the membrane potential of the mitochondria.

- increase in enzymatic activity of cytochrome oxidase ([2]; 24 hours after application): 750%
- increase in enzymatic activity of cytochrome oxidase ([2]; after 3 hours): 150%
Substance: Tyr-Leu-Lys-Lys-Ala-NH2 (YLKKA-NH2) [SEQ ID No. 2]
- expression of cytochrome C [1]: clear increase
- increase in the amount of intracellular ATP ([3]; after 3 hours): 27%
- increase in the amount of intracellular ATP ([3]; after one hour): 41%
- mitochondrial membrane potential (JC-1 red fluorescence) under stress ([4]; peptide for 96 hours, then 2 mM H2O2 for 30 min or UVB 50 mJ/cm^2): more marked red fluorescence
- mitochondrial membrane potential (JC-1 red fluorescence) ([4]; unstressed human dermal fibroblasts, 1% solution of a 50-ppm mother-solution, 96 hours): elevated membrane potential, greater than in the control cells

Reference: patent US20110123466A1, “PHARMACEUTICAL AND/OR COSMETIC COMPOSITION CONTAINING AN ACTIVE PRINCIPLE ACTIVATOR OF CYTOCHROME C” (SOCIETE D'EXTRACTION DES PRINCIPES ACTIFS S.A (ISP …, priority 2007, published 2011)
